The source made the active and inactive calls. The calls are words filed in the database; no cut-off is given here.
Columns and labels:
[1] = Antiproliferative activity against human MDA-MB-231 cells after 96 hrs by SRB assay; assay type: functional, cell-based; conditions: MDA-MB-231, 96 h
[2] = Antiproliferative activity against human MCF7 cells after 96 hrs by SRB assay; assay type: functional, cell-based; conditions: MCF7, 96 h
[3] = Antiproliferative activity against human T47D cells after 96 hrs by SRB assay; assay type: functional, cell-based
[4] = Antiproliferative activity against human PC3 cells after 96 hrs by SRB assay; assay type: functional, cell-based; conditions: PC-3, 96 h
[5] = Antiproliferative activity against human DU145 cells after 96 hrs by SRB assay; assay type: functional, cell-based; conditions: DU-145, 96 h
[6] = Antiproliferative activity against human HCT116 cells after 96 hrs by SRB assay; assay type: functional, cell-based; conditions: HCT-116, 96 h
[7] = Antiproliferative activity against human HT-29 cells after 96 hrs by SRB assay; assay type: functional, cell-based; conditions: HT-29, 96 h
[8] = Antiproliferative activity against human HL60 cells after 96 hrs by SRB assay; assay type: functional, cell-based; conditions: HL-60, 96 h
[9] = Antiproliferative activity against HAF cells after 96 hrs by SRB assay; assay type: cell-based; conditions: Homo sapiens
[10] = Potency index, ratio of podophyllotoxin IC50 to compound IC50 for human T47D cells; assay type: functional
[11] = Selectivity index, ratio of IC50 for HAF cells to IC50 for human MDA-MB-231 cells; assay type: functional
[12] = test system: MCF7; assay: Selectivity index, ratio of IC50 for HAF cells to IC50 for human MCF7 cells; assay type: functional
[13] = test system: T47D; assay: Selectivity index, ratio of IC50 for HAF cells to IC50 for human T47D cells; assay type: functional
[14] = test system: PC-3; assay: Selectivity index, ratio of IC50 for HAF cells to IC50 for human PC3 cells; assay type: functional
[15] = test system: DU-145; assay: Selectivity index, ratio of IC50 for HAF cells to IC50 for human DU145 cells; assay type: functional
[16] = test system: HCT-116; assay: Selectivity index, ratio of IC50 for HAF cells to IC50 for human HCT116 cells; assay type: functional
[17] = Selectivity index, ratio of IC50 for HAF cells to IC50 for human HT-29 cells; assay type: functional
[18] = test system: HL-60; assay: Selectivity index, ratio of IC50 for HAF cells to IC50 for human HL60 cells; assay type: functional
[19] = test system: T47D; assay: Antimigratory activity in human T47D cells assessed as inhibition of cell migration at 20 uM after 12 hrs by crystal violet staining based transwell migration assay; assay type: functional
[20] = (§1) Inhibition of colony formation in human T47D cells after 7 days by crystal violet staining based assay; assay type: functional, cell-based; conditions: 168 h
[21] = test system: T47D; assay: as §1; assay type: functional, cell-based
[22] = (§2) Antimigratory activity in human T47D cells assessed as inhibition of cell migration after 12 hrs by crystal violet staining based transwell migration assay; assay type: functional
[23] = test system: T47D; assay: as §2; assay type: functional
[24] = test system: T47D; assay: Induction of apoptosis in human T47D cells assessed as early apoptotic cells at 5 uM after 48 hrs by Annexin V-FITC/propidium iodide staining based flow cytometry (reference value: 1.49 %); assay type: functional
[25] = test system: T47D; assay: Induction of apoptosis in human T47D cells assessed as late apoptotic cells at 5 uM after 48 hrs by Annexin V-FITC/propidium iodide staining based flow cytometry (reference value: 2.72 %); assay type: functional
[26] = test system: T47D; assay: Induction of apoptosis in human T47D cells assessed as early apoptotic cells at 10 uM after 48 hrs by Annexin V-FITC/propidium iodide staining based flow cytometry (reference value: 1.49 %); assay type: functional
[27] = test system: T47D; assay: Induction of apoptosis in human T47D cells assessed as late apoptotic cells at 10 uM after 48 hrs by Annexin V-FITC/propidium iodide staining based flow cytometry (reference value: 2.72 %); assay type: functional
[28] = test system: T47D; assay: Induction of apoptosis in human T47D cells assessed as early apoptotic cells at 20 uM after 48 hrs by Annexin V-FITC/propidium iodide staining based flow cytometry (reference value: 1.49 %); assay type: functional
[29] = test system: T47D; assay: Induction of apoptosis in human T47D cells assessed as late apoptotic cells at 20 uM after 48 hrs by Annexin V-FITC/propidium iodide staining based flow cytometry (reference value: 2.72 %); assay type: functional
[30] = Antitumor activity against human T47D cells xenografted in nude mouse assessed as tumor weight at 20 mg/kg/day, ip administered daily for 18 days measured every 3 days during compound dosing (reference value: 882 +/- 149 mg); assay type: functional
[31] = Antitumor activity against human T47D cells xenografted in nude mouse assessed as tumor weight at 40 mg/kg/day, ip administered daily for 18 days measured every 3 days during compound dosing (reference value: 882 +/- 149 mg); assay type: functional
[32] = Antitumor activity against human T47D cells xenografted in nude mouse assessed as tumor volume at 20 mg/kg/day, ip administered daily for 18 days measured every 3 days during compound dosing (reference value: 1220 +/- 127 mm3); assay type: functional
[33] = Antitumor activity against human T47D cells xenografted in nude mouse assessed as tumor volume at 40 mg/kg/day, ip administered daily for 18 days measured every 3 days during compound dosing (reference value: 1220 +/- 127 mm3); assay type: functional
[34] = test system: Mus musculus; assay: Acute toxicity in nude mouse xenografted with human T47D cells assessed as effect on the survival rate at 20 to 40 mg/kg/day, ip administered daily for 18 days measured on day 18 post last dose; assay type: organism-based; conditions: in vivo, 432 h
[35] = test system: Mus musculus; assay: Toxicity in nude mouse xenografted with human T47D cells assessed as body weight loss at 20 to 40 mg/kg/day, ip administered daily for 18 days measured every 3 days during compound dosing; assay type: organism-based; conditions: in vivo
[36] = test system: Mus musculus; assay: Toxicity in nude mouse xenografted with human T47D cells assessed as diarrhoea at 20 to 40 mg/kg/day, ip administered daily for 18 days; assay type: organism-based; conditions: in vivo, 432 h
[37] = test system: Mus musculus; assay: Toxicity in nude mouse xenografted with human T47D cells assessed as organ damage at 20 to 40 mg/kg/day, ip administered daily for 18 days; assay type: organism-based; conditions: in vivo, 432 h
[38] = test system: Mus musculus; assay: Toxicity in nude mouse xenografted with human T47D cells assessed as effect on food and water withdrawal at 20 to 40 mg/kg/day, ip administered daily for 18 days measured every 3 days during compound dosing; assay type: organism-based; conditions: in vivo
[39] = test system: Mus musculus; assay: Toxicity in nude mouse xenografted with human T47D cells assessed as incidence of impaired posture or movement at 20 to 40 mg/kg/day, ip administered daily for 18 days measured every 3 days during compound dosing; assay type: organism-based; conditions: in vivo

## COc1cc2c(cc1C(=O)Nc1ccc(N(C)C)cc1)CC[C@H]1C(C)(C)[C@@H](O)CC[C@]21C
[1]
  IC50: 320 nM
[2]
  IC50: 280 nM
[3]
  IC50: 10 nM
[4]
  IC50: 540 nM
[5]
  IC50: 280 nM
[6]
  IC50: 570 nM
[7]
  IC50: 590 nM
[8]
  IC50: 40 nM
[9]
  IC50: 4.54 µM
[10]
  Ratio IC50: 25
[11]
  Ratio IC50: 13.8
[12]
  Ratio IC50: 13.8
[13]
  Ratio IC50: 13.8
[14]
  Ratio IC50: 13.8
[15]
  Ratio IC50: 13.8
[16]
  Ratio IC50: 13.8
[17]
  Ratio IC50: 13.8
[18]
  Ratio IC50: 13.8
[19]
  Activity: Active
[20]
  EC50: 2.56 nM
[21]
  Activity: Dose-dependent effect
[22]
  EC50: 6.42 µM
[23]
  Activity: Dose-dependent effect
[24]
  Activity: 4.31%
[25]
  Activity: 0.49%
[26]
  Activity: 16.86%
[27]
  Activity: 1.09%
[28]
  Activity: 24.58%
[29]
  Activity: 1.29%
[30]
  Activity: 550 mg
[31]
  Activity: 320 mg
[32]
  Activity: 654 mm3
[33]
  Activity: 401 mm3
[34]
  Activity: Non-Toxic
[35]
  Activity: Non-Toxic
[36]
  Activity: Non-Toxic
[37]
  Activity: Non-Toxic
[38]
  Activity: Non-Toxic
[39]
  Activity: Non-Toxic
